From ChEMBL document CHEMBL1201862, “PubChem BioAssay data set” (2004)
Active and inactive are the calls of the source.

Legend:
[1] = biological target: Ras and Rab interactor 1/Tyrosine-protein kinase ABL1 (Homo sapiens, UniProt P00519+Q13671); type: functional;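 further: biochemical TR-FRET dose-response test measuring inhibition of binding between Rin1 and Abl proteins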
[2] = biological target: T1, RNA-binding protein pos-1 (Caenorhabditis elegans, UniProt G5EF15); test: disruptors of C. elegans POS-1 RNA interaction – biochemical, fluorescence polarization, dose response (AID 1964);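 further: purified POS-1 fused to maltose binding protein made in E. coli; potency of compounds blocking POS-1 binding to fluorescent RNA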
T1 sequence (G5EF15 whole entry): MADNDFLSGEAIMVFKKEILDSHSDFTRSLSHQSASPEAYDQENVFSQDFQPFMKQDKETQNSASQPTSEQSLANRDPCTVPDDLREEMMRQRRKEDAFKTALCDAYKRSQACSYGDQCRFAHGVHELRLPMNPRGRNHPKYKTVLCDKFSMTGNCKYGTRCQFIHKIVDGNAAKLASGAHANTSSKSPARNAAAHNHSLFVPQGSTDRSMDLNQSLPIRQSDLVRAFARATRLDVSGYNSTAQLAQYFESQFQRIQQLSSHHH

[3] = biological target: T2, Zinc finger protein mex-5 (Caenorhabditis elegans, UniProt Q9XUB2); test: potency of MEX-5 RNA-binding blockers – biochemical, C. elegans, fluorescence polarization, dose response (AID 1960)
T2 sequence (Q9XUB2 whole entry): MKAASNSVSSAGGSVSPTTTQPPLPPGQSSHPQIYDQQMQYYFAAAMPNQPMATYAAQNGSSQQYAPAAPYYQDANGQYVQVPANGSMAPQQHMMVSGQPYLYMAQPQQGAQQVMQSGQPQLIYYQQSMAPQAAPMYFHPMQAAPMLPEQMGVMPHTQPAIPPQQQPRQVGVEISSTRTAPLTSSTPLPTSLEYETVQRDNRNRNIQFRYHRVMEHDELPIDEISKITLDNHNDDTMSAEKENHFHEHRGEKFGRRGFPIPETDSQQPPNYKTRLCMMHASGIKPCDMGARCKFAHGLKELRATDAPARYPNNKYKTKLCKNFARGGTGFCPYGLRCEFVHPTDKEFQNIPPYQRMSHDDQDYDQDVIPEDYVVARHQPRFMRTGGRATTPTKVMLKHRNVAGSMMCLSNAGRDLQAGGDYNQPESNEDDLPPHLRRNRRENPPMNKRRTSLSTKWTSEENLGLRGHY

[4] = HEK-293T cell viability reduction – luminescence, B-cell screen hits, cytotoxicity control for BCR NF-kB inhibitor project, dose response (AID 489021); type: functional, cell-based;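 further: HEK-293T cells carrying an NF-kB luciferase reporter; cells exposed to compound for about 14 hours before viability readout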
[5] = biological target: T3, Endoribonuclease toxin MazF (Escherichia coli K-12, UniProt P0AE70); test: activation of MazEF endoribonuclease cleavage – biochemical, fluorescence, single-stranded RNA substrate, uHTS hits, dose response (AID 588481); type: functional
T3 sequence (P0AE70 whole entry): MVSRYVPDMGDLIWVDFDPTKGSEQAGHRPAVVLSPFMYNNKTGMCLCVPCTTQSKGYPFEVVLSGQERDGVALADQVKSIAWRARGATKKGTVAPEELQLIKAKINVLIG

[6] = biological target: T3, Endoribonuclease toxin MazF; test: substrate-only fluorescence increase artefacts – biochemical, single-stranded RNase substrate, counter-screen for MazEF activator project, dose response (AID 588502); type: functional
Insulin-degrading enzyme [7] = biological target: T4, Insulin-degrading enzyme (Homo sapiens, UniProt P14735); test: recombinant IDE activation, cell-free – biochemical, fluorescence polarization, counter-screen for IDE activator project, dose response (AID 588681)
T4 sequence (P14735 whole entry): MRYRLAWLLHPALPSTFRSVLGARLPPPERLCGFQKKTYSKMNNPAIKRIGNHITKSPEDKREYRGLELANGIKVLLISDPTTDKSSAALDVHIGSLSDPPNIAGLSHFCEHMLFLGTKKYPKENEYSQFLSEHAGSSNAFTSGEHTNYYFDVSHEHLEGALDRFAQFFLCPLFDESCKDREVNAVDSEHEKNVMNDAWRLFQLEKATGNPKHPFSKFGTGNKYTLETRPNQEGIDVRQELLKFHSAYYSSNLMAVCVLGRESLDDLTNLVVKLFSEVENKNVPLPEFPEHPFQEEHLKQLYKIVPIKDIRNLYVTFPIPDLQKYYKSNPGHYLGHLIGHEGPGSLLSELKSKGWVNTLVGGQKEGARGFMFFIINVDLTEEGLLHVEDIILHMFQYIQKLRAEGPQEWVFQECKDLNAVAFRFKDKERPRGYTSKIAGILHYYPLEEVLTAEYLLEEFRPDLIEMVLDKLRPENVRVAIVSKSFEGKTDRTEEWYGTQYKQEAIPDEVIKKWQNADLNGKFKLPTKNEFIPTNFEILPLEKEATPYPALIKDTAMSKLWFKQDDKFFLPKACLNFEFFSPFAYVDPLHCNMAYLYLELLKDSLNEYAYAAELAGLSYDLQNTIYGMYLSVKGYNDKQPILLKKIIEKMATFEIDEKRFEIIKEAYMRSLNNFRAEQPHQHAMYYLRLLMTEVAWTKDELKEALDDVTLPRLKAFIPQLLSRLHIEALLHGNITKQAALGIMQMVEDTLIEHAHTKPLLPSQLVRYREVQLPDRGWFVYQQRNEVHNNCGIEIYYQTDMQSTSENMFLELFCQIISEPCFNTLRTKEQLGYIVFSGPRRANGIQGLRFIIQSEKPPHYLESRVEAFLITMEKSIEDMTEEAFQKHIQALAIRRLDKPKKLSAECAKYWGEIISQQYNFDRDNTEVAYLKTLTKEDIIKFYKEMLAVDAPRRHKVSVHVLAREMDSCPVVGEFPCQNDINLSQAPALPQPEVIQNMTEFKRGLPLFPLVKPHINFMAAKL

Insulin-degrading enzyme [8] = biological target: T4, Insulin-degrading enzyme; test: cellular IDE activation of Abeta substrate cleavage – fluorescence polarization, HEK cells, dose response (AID 588439); type: functional, cell-based
HEK293 [9] = test: membrane integrity loss in HEK cells – cell-based, fluorescence, cytotoxicity control for IDE activator project, dose response (AID 588440); type: functional; details: Homo sapiens;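 further: cytotoxicity by LDH release measuring loss of membrane integrity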
HEK293 [10] = test: optical interference in Abeta FP readout, dose response, artefact control for IDE activator project, biochemical, fluorescence polarization (AID 588442); type: functional, cell-based; details: Homo sapiens
Cytochrome P450 2D6 = Cytochrome P450 2D6 (Homo sapiens, UniProt P10635);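 further: CYP2D6 member of a cytochrome P450 panel assay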
Cytochrome P450 3A4 = Cytochrome P450 3A4 (Homo sapiens, UniProt P08684);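 further: CYP3A4 tested as one member of a cytochrome P450 panel screen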
Cytochrome P450 2C9 = Cytochrome P450 2C9 (Homo sapiens, UniProt P11712)
[11] = biological target: T5, Sentrin-specific protease 8 (Homo sapiens, UniProt Q96LD8); test: inhibition of human SENP8 cleavage activity – biochemical, luminescence, SAR follow-up (AID 504501); type: functional
T5 sequence (Q96LD8 whole entry): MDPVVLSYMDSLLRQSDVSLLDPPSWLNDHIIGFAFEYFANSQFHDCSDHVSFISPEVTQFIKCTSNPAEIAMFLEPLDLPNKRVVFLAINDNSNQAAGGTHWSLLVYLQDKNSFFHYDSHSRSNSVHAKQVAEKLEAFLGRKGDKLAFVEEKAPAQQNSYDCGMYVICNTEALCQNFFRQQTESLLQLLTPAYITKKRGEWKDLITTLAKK

Caspase-3 = biological target: T6, Caspase-3 (Homo sapiens, UniProt P42574); test: SAR Analysis of small molecule inhibitors of Sentrin-specific proteases (SENPs) using a Caspase-3 Selectivity assay. [Related pubchem assays (depositor defined):AID2540, AID2599, AID434973, AID489001]; type: functional
T6 sequence (P42574 whole entry): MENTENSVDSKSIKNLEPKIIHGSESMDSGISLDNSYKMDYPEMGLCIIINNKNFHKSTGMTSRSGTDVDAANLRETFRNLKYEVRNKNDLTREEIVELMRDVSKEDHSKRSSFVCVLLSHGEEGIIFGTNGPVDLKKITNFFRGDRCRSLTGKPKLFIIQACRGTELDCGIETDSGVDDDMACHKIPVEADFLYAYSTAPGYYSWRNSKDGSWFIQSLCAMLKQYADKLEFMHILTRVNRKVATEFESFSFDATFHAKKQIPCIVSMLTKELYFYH

[12] = biological target: T7, Sentrin-specific protease 6 (Homo sapiens, UniProt Q9GZR1); test: SAR Analysis of small molecule inhibitors of Sentrin-specific protease 6 (SENP6) using a Luminescent assay. [Related pubchem assays (depositor defined):AID2582, AID2599]; type: functional
T7 sequence (Q9GZR1 whole entry): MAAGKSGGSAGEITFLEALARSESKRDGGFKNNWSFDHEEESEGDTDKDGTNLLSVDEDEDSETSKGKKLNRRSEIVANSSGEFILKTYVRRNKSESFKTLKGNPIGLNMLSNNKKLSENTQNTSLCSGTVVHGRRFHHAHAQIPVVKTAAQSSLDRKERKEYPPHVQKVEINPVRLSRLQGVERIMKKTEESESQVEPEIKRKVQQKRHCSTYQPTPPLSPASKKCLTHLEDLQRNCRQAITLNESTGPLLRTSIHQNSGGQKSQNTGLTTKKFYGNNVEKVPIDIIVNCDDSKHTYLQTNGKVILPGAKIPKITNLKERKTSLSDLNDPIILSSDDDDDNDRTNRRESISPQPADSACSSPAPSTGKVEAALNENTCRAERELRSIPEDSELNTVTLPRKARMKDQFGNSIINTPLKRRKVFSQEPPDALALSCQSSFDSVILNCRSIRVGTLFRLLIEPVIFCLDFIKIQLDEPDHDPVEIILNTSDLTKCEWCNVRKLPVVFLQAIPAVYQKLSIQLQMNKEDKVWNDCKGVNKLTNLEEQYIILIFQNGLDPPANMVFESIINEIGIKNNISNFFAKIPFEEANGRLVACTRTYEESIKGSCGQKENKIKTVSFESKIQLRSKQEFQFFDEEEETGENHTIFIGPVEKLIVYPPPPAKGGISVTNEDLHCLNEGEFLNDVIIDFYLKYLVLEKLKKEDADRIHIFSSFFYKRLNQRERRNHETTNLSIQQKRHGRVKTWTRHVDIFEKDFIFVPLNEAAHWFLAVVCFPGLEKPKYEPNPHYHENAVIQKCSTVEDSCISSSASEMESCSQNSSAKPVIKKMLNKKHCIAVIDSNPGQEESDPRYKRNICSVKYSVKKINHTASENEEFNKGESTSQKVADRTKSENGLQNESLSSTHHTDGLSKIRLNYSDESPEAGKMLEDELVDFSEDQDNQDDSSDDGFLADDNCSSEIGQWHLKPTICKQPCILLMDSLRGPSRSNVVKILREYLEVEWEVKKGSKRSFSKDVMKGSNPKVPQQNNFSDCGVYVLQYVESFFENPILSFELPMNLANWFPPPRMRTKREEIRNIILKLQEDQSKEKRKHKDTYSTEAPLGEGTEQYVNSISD

[13] = biological target: T8, Sentrin-specific protease 7 (Homo sapiens, UniProt Q9BQF6); test: inhibition of human SENP7 cleavage activity – biochemical, luminescence, SAR follow-up (AID 504497); type: functional
T8 sequence (Q9BQF6 whole entry): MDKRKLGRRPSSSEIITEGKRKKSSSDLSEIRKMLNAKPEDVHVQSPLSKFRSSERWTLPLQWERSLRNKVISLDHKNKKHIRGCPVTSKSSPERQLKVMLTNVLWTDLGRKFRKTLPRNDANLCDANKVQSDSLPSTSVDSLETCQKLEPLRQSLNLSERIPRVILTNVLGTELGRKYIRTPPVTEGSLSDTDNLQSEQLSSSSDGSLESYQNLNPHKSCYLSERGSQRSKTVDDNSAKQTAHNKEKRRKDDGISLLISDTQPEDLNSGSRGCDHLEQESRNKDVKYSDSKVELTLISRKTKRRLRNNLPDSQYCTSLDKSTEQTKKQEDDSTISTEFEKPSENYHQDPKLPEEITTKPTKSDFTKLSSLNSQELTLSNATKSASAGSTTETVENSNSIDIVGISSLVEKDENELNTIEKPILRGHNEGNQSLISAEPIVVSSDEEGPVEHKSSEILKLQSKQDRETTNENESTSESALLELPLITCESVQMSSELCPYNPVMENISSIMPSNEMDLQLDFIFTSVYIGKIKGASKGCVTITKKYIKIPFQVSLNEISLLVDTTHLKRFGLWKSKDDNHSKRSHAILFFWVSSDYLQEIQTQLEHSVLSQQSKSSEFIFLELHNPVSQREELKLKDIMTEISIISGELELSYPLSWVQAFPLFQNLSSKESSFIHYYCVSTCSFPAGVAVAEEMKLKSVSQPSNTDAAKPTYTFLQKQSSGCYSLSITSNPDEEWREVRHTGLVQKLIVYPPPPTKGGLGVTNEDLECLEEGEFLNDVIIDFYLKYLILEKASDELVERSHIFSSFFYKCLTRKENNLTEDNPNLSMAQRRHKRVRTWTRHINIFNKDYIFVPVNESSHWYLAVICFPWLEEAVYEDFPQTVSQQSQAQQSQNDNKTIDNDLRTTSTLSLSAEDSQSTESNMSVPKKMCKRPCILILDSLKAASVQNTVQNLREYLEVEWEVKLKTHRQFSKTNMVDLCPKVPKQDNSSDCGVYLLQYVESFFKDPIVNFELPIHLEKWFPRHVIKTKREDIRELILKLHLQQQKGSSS

Cytochrome P450 2D6, sequence (P10635 whole entry): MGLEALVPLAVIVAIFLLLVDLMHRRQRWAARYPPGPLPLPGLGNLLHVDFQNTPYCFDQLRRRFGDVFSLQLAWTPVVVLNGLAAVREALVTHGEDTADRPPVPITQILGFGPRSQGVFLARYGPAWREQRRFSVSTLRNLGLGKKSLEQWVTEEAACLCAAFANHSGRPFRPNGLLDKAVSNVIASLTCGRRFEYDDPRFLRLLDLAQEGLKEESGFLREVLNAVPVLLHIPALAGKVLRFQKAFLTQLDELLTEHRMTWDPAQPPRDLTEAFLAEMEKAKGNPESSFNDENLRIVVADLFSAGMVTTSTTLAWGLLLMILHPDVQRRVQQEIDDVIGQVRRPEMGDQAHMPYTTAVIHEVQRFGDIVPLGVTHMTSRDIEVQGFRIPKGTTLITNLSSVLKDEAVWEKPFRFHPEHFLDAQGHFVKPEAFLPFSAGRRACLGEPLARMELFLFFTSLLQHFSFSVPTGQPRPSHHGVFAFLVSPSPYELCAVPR
Cytochrome P450 2C9, sequence (P11712 whole entry): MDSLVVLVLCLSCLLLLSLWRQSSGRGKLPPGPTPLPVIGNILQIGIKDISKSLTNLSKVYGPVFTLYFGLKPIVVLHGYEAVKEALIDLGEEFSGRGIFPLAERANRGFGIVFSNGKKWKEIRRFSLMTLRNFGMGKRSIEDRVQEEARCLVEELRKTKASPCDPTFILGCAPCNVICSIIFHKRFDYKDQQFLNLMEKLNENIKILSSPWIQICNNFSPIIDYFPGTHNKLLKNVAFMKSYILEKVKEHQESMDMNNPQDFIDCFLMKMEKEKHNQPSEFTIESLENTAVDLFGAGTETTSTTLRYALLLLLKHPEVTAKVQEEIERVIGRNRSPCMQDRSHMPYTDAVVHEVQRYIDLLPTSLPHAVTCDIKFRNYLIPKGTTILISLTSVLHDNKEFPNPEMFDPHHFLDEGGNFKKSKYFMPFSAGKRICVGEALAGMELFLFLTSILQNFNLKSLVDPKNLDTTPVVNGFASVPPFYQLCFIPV
Cytochrome P450 3A4, sequence (P08684 whole entry): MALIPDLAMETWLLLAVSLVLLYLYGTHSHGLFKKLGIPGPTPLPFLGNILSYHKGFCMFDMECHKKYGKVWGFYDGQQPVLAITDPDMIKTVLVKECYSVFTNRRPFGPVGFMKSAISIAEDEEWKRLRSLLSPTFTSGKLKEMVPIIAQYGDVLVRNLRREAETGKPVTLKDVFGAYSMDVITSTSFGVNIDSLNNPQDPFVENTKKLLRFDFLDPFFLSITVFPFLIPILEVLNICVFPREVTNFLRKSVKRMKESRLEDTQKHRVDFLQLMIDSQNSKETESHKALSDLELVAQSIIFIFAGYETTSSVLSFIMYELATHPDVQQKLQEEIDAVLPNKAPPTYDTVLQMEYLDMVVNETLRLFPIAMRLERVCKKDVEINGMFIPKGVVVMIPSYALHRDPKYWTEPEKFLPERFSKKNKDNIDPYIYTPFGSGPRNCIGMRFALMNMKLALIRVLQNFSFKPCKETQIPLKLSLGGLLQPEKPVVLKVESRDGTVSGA
Ras and Rab interactor 1/Tyrosine-protein kinase ABL1, sequence (P00519 whole entry, the tested form may be a part): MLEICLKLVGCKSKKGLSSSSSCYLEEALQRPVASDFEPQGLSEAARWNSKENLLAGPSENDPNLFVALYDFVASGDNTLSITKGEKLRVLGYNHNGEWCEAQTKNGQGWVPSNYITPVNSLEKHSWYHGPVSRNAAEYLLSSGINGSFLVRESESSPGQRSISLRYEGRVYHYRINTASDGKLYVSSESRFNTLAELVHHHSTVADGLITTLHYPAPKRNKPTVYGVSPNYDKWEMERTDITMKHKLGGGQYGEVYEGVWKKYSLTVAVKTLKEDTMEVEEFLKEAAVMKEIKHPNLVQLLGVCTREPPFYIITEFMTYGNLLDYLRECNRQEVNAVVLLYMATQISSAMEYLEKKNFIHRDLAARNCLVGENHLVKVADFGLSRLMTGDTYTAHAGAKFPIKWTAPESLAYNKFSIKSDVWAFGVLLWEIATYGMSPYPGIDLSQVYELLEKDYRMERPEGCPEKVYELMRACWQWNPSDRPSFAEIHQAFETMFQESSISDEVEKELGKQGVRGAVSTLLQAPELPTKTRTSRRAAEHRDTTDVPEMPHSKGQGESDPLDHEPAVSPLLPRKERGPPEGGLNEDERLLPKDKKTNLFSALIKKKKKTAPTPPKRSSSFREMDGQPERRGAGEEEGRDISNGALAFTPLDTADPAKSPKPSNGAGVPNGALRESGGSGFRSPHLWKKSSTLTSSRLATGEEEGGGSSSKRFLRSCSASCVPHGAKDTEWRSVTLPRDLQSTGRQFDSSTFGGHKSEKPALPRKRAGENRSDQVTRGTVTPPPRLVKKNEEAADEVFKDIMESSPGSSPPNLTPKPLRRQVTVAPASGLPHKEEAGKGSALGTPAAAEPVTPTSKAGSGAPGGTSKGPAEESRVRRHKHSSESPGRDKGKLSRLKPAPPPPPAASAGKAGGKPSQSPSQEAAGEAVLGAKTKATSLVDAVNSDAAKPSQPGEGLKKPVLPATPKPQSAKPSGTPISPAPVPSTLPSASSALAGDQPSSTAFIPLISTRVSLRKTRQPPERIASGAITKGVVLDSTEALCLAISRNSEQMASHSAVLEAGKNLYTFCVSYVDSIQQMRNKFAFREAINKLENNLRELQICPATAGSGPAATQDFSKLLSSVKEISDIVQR
Ras and Rab interactor 1/Tyrosine-protein kinase ABL1, sequence (Q13671 whole entry, the tested form may be a part): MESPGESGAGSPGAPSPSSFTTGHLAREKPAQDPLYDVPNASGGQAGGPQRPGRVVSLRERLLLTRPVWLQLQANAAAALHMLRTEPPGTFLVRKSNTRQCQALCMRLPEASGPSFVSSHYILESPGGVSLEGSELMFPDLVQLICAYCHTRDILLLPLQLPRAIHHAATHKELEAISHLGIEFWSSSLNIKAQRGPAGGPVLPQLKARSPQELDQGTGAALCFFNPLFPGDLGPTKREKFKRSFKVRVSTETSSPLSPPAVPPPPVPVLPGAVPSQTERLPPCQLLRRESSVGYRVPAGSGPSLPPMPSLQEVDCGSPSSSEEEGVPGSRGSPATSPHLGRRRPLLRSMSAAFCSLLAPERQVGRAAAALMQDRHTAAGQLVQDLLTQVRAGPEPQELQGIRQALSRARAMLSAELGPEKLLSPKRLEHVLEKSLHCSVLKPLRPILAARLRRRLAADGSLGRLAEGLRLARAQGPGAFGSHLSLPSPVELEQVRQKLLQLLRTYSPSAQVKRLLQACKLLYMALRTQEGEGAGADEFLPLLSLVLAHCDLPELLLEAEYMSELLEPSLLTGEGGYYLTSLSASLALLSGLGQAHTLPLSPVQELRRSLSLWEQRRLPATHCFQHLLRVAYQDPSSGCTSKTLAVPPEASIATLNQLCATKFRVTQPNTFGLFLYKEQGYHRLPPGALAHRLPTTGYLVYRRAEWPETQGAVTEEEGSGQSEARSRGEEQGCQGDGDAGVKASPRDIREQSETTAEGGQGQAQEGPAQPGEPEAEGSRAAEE

Row | Compound | EC50 [2] | EC50 [3] | EC50 [5] | EC50 [6] | EC50 (Insulin-degrading enzyme [7]) | EC50 (Insulin-degrading enzyme [8]) | IC50 (HEK293 [9]) | EC50 (HEK293 [10]) | also measured
1 | CCOC(=O)c1ccc(NC(=O)COc2ccccc2CNC2CCCC2)cc1 | – | – | – | – | – | – | – | – | IC50 [1]: 12.2 µM (inactive)
2 | COc1ccccc1/C=C1/SC(=S)N(CCC(=O)Nc2cccnc2)C1=O | 69.2 µM (active) | 37.6 µM (inconclusive) | 52 µM (inactive) | > 99 µM (inactive) | – | – | – | – | IC50 [4]: > 80 µM (inactive)
3 | CCCCn1nc2cc(C(=O)NCCCCc3ccccc3)ccc2c1OCC | – | – | – | – | > 54.7 µM (inactive) | 22.8 µM (inactive) | > 89.2 µM (inactive) | > 54.7 µM (inactive) | AC50 (Cytochrome P450 2D6): 3.98 µM (inconclusive); AC50 (Cytochrome P450 3A4): 6.31 µM (inconclusive); AC50 (Cytochrome P450 2C9): 31.6 µM (inconclusive)
4 | Cc1cccc(CN2C(=O)N/C(=C/c3ccc(C)s3)C2=O)c1 | 27.5 µM (active) | > 300 µM (inconclusive) | > 99 µM (inactive) | 87.8 µM (inactive) | – | – | – | – | –
5 | O=[N+]([O-])c1ccc(/N=C/c2c[nH]c3ccccc23)cc1 | – | – | – | – | – | – | – | – | IC50 [11]: > 99 µM (inactive); IC50 (Caspase-3): > 99 µM (inactive); IC50 [12]: > 99 µM (inactive); IC50 [13]: > 99 µM (inactive)
6 | Cc1cccc(C(=O)NCCN2CCOCC2)c1[N+](=O)[O-] | – | – | – | – | > 54.6 µM (inactive) | > 54.6 µM (inactive) | > 89.1 µM (inactive) | > 54.6 µM (inactive) | –
